From paper PMC5007552, “The hVps34‐SGK3 pathway alleviates sustained PI3K/Akt inhibition by stimulating mTORC1 and tumour growth” (The EMBO Journal, 2016)

What was measured:
[1] = system: ZR-75-1 cells; test: Immunoblot of Akt/mTORC1 pathway markers (Akt, PRAS40, TSC2, S6K1, Rictor, S6, 4EBP1) in ZR-75-1 cells; format: cell-based, human
Description: Kinase reactions are presented as means ± SD for triplicate reaction. Immunoprecipitates (IP) were also analysed by immunoblot with the indicated antibodies. • SGK3 was knocked down in ZR‐75‐1 cells by using shRNA probe B and compared to a control shRNA probe, named sh scramble. After infection, the cells were kept for 2 days in puromycin selection media and then seeded for the experiment. The cells were treated with 1 μM MK‐2206 for 1 h or 5 days. The cell lysates were subjected to immunoblot analysis with the indicated antibodies.
The cell lysates were analysed by immunoblot using the antibody against phosphorylated Akt phosphorylation consensus motif (RxRxxpS/pT).
HEK293 cells were purchased from the American Tissue Culture Collection (ATCC). Cells were cultured in RPMI or DMEM media supplemented with 10% (v/v) foetal bovine serum, 2 mM L‐glutamine, 100 U/ml penicillin and 0.1 mg/ml streptomycin. Inhibitor treatments were carried out as described in figure legends. During 5 days inhibitor treatments, the media was changed after 72‐h intervals. The cells were lysed in buffer containing 50 mM Tris–HCl (pH 7.5), 150 mM NaCl, 1 mM EDTA, 1 mM EGTA, 1 mM sodium orthovanadate, 10 mM sodium glycerophosphate, 10 mM sodium pyrophosphate, 0.27 M sucrose, 0.1% (v/v) 2‐mercaptoethanol, 1 mM benzamidine and 0.1 mM PMSF. Lysates were clarified by centrifugation at 16,000 g for 10 min at 4°C. Protein concentration was calculated using Bradford assay (Thermo Scientific). Immunoblotting and immunoprecipitation were performed using standard procedures. The signal was developed using ECL Western Blotting Detection Kit (Amersham) on Amersham Hyperfilm ECL film (Amersham).

[2] = target: T1, SGK3 (Homo sapiens, UniProt Q96BR1); test: Immunoprecipitated endogenous SGK3 kinase activity (Crosstide) and SGK3 phosphorylation from treated cells; format: cell-based; design: we immunoprecipitated endogenous SGK3 and assessed protein kinase activity; endogenous in cells; host or cells: ZR-75-1; details: 1 h, ZR-75-1 cells
T1 sequence (Q96BR1 1-496): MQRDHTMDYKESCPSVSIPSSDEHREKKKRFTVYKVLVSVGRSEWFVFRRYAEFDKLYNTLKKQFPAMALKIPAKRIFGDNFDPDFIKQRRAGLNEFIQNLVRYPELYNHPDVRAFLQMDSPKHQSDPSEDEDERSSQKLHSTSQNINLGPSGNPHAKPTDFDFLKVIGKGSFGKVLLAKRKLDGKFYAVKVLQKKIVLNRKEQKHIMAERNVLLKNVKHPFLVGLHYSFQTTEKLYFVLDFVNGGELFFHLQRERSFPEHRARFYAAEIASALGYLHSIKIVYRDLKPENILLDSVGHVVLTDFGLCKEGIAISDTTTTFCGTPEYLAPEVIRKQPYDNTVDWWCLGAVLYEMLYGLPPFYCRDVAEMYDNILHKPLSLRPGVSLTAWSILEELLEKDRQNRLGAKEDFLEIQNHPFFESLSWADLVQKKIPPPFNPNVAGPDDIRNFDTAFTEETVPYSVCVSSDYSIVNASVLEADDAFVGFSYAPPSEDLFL
Description: (§1) Briefly, SGK3, Akt and S6K1 were immunoprecipitated from 1 mg ZR‐75‐1 cell lysate. Immunoprecipitates were washed in sequence with lysis buffer containing high salt concentration (500 mM NaCl), lysis buffer and Buffer A (50 mM Tris pH 7.5, 0.1 mM EGTA). Kinase activity was assessed by measuring [γ‐^32P]ATP incorporation into Crosstide substrate peptide [[…]]. The reactions were carried in 40 μl total volume containing 0.1 mM [γ‐^32P]ATP (400–1,000 cpm/pmol), 10 mM magnesium acetate and 30 μM Crosstide peptide. Reactions were terminated by adding 10 μl 0.1 M EDTA and spotting 40 μl of the resulting reaction mix on P81 paper, which were immediately immersed into 50 mM orthophosphoric acid. Papers were washed at least five times in 50 mM orthophosphoric acid, rinsed in acetone and air‐dried. Radioactivity was quantified by Cerenkov counting. One unit of enzyme activity was defined as amount of enzyme that catalyses incorporation of 1 nmol of [γ‐^32P]ATP into the substrate over 1 min.

[3] = target: MLK1 (Homo sapiens, UniProt P80192); test: IC50 on recombinant MLK1; format: biochemical; details: Fig 5B / Appendix Fig S1B, recombinant kinase, unit inferred
Chain of MLK1 (P80192 whole entry, species assumed): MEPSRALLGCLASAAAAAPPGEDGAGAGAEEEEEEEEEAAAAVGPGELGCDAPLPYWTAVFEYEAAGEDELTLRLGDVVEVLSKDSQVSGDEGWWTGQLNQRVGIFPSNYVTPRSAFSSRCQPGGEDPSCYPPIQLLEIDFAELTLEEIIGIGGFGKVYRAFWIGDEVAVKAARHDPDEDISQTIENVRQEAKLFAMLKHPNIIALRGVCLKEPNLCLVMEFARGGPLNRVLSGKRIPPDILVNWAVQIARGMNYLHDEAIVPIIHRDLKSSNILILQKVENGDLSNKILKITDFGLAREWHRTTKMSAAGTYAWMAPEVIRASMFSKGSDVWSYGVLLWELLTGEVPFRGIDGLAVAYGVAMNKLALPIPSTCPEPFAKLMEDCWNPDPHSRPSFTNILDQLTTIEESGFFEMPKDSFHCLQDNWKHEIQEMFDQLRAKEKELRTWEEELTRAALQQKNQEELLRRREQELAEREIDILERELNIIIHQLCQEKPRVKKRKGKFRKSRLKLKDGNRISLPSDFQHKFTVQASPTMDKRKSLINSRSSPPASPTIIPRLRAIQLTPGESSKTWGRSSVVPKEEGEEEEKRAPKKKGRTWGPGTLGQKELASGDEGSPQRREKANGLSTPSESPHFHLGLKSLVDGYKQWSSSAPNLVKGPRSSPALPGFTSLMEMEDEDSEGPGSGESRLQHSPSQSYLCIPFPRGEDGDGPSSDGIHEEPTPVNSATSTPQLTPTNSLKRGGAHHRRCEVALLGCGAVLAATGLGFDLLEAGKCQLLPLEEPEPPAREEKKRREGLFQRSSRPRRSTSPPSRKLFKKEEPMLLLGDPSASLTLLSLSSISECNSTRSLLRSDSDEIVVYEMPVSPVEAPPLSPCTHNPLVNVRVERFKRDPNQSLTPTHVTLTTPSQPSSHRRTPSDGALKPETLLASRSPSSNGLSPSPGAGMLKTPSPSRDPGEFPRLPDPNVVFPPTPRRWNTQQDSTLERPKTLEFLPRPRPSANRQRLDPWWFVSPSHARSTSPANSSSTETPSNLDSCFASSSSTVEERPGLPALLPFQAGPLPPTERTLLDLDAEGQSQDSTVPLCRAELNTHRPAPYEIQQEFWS
Description: (§2) The result for each kinase is presented as a mean kinase activity of the reaction taken in triplicate relative to a control reaction where the inhibitors were omitted. […] SGK3 was immunoprecipitated from cell lysates and subjected to in vitro kinase assay by measuring phosphorylation of the Crosstide substrate peptide in the presence of 0.1 mM [γ‐^32P]ATP in a 30 min 30°C reaction (upper panel). Kinase reactions are presented as means ± SD for triplicate reaction.
(§3) Appendix Figure S1. […] (A) Chemical struc tures of
(§4) Sano/f_i-14g, -14i and -14n compounds. (B) IC50 values of inhibitors on indicated recombinant k inases. […]

[4] = target: MLK3 (Homo sapiens, UniProt Q16584); test: IC50 on recombinant MLK3; format: biochemical; details: Fig 5B / Appendix Fig S1B, recombinant kinase, unit inferred
Chain of MLK3 (Q16584 whole entry, species assumed): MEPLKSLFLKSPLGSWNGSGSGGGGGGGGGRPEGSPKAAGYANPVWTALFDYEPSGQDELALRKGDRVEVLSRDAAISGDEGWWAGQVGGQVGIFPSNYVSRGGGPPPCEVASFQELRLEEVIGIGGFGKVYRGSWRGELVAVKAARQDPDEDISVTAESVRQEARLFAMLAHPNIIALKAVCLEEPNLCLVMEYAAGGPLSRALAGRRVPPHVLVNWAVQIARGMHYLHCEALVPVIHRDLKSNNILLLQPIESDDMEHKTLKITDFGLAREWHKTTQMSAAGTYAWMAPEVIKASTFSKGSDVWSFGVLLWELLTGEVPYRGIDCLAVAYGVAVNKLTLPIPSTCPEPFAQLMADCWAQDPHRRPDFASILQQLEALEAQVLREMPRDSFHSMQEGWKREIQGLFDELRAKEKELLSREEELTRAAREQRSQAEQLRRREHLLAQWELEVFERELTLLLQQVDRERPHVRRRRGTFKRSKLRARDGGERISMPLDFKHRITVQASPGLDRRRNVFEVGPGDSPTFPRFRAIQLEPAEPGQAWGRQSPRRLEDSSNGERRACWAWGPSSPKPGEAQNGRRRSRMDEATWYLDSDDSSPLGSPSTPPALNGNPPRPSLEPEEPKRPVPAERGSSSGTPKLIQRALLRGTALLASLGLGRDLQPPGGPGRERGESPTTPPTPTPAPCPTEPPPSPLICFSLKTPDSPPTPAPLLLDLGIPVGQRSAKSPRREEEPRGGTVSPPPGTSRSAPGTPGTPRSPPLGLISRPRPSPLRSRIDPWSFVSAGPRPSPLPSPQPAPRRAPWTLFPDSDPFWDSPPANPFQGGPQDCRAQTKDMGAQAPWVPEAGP
Description: as §2, §3, §4

[5] = target: PKBa (Homo sapiens, UniProt P31749); test: IC50 on recombinant PKBa (Akt1); format: biochemical; details: Fig 5B / Appendix Fig S1B, recombinant kinase, unit inferred
Chain of PKBa (P31749 whole entry): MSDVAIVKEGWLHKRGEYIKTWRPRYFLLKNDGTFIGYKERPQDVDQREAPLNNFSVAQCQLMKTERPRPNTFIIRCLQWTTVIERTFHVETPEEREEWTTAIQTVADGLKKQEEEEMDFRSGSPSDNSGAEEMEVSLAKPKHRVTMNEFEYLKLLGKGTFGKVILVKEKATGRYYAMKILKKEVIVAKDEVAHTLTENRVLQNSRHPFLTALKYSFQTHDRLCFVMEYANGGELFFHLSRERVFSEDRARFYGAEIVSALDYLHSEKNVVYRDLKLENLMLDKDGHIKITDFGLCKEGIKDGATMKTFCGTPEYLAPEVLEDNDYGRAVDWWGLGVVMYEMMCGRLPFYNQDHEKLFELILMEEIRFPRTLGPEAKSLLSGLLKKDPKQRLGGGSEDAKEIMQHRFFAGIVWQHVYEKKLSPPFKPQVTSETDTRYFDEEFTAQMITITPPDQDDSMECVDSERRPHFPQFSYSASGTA
Description: as §2, §3, §4

[6] = system: S6K1; test: Immunoprecipitated S6K1 kinase activity (Crosstide) from treated ZR-75-1 cells; format: cell-based, human; details: 1 μM MK-2206, 1 h
Description: SGK3 (upper panel) and S6K1 (middle panel) were immunoprecipitated and subjected to in vitro kinase assay by measuring phosphorylation of the Crosstide substrate peptide in the presence of 0.1 mM [γ‐^32P]ATP in a 30 min 30°C reaction. Kinase reactions are presented as means ± SD for triplicate reaction. Immunoprecipitates (IP) were also analysed by immunoblot with the indicated antibodies. The cell lysates were also analysed by immunoblot using the indicated antibodies (lower panel).
as §1, with “One unit of enzyme activity was defined as amount of enzyme that catalyses incorporation of 1 nmol of [γ‐^32P]ATP into the substrate over 1 min.” left out

[7] = 1–3 μM 14h, 1 h, ZR-75-1 in serum
[8] = ZR-75-1, 5 days GDC0941 or MK-2206, then 3 μM 14h 1 h

reduction of SGK3 activity and phosphorylation ([2]; 0.1 μM 14h)	SGK3 activity and phosphorylation ([2]; 1 μM 14h)	IC50 [3]	IC50 [4]	IC50 [5]	Compound	S6K1 and S6 protein phosphorylation ([1]; 10 μM 14h, 1 h, ZR-75-1 in serum)	PRAS40 (Akt-specific substrate) phosphorylation [1, 7]	Rictor (Thr1135) and S6 protein (Ser240/244) phosphorylation [1, 7]	4EBP1 phosphorylation [1, 8]	TSC2 phosphorylation [1, 8]	TSC2, S6K1, Rictor, S6 protein or 4EBP1 phosphorylation or S6K1 activity ([1]; ZR-75-1 in serum without prolonged PI3K or Akt inhibitor treatment, 3 μM 14h)	reduction of S6K1 activity [6]
~ 80%	undetectable	215 nM	84 nM	> 10 µM	Nc1n[nH]c2nc(-c3ccc(NS(=O)(=O)c4cc(Cl)ccc4Cl)cc3)cnc12 [14h]	moderate reduction	not dephosphorylated	failed to significantly inhibit	not markedly reduced	suppressed phosphorylation of TSC2	did not inhibit	
					NC1(c2ccc(-c3nc4ccn5c(=O)[nH]nc5c4cc3-c3ccccc3)cc2)CCC1 [MK-2206]							~ 10 fold
